Results from patent US5023082A, “Sustained-release pharmaceutical compositions” (Yissum Research Development Company of the Hebrew …, priority 1986, dated 1991).

Test: Comparison of release rate of agents/salts from film-like implants
Assay type: physicochemical
From the text: The amount of the pharmacological agent added to the implant will vary, in a manner understood by those of ordinary skill in the art, depending upon such criteria as: […] The above criteria will depend upon such factors as the patient's age, height, weight, sex, medical history, etc. The pharmacological agent must be present in an amount sufficient to impart therapeutic effect to the pharmaceutical composition. The nature of the active agent in the implant also plays an important role in the control release mechanism. […] Different salts of the same active agent may be released at different rates.

## N=C(NCCCCCCNC(=N)NC(=N)Nc1ccc(Cl)cc1)NC(=N)Nc1ccc(Cl)cc1 [chlorhexidine acetate]
20% w/w per protein, same implant containing 20% w/w tetracycline HCl
  Release rate from film-like implant compared with tetracycline HCl: more slowly
Same formulation, 20% (w/w) chlorhexidine per protein
  Release rate from film-like implants compared with chlorhexidine HCl: more slowly
